According to patent US12263248B2, “Compounds and compositions for intracellular delivery of therapeutic agents” (ModernaTX, Inc., priority 2018, dated 2025):

Key:
[1] = Particle size and polydispersity index of nanoparticle compositions (Zetasizer Nano ZS); assay type: physicochemical; settings: Table 1A; for Size (nm): lipid:DSPC:cholesterol:PEG-DMG 50:10:38.5:1.5 mol %
In short: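 Measured in 1×PBS by Zetasizer Nano ZS.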

[2] = Encapsulation efficiency of RNA (QUANT-IT RIBOGREEN RNA assay); assay type: physicochemical; settings: Table 1A
In short: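 RiboGreen fluorescence (ex ~480, em ~520 nm) compared between intact samples and Triton X-100-lysed samples after 15 min at 37 °C in TE buffer, pH 7.5. Percent free RNA is the blank-corrected intact/disrupted ratio.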

[3] = tested on: luciferase (Luc) mRNA; assay: Luc expression, whole body bioluminescence after intravenous administration to mice; assay type: in vivo; settings: for Total Flux 3 hours / Total Flux 6 hours / Total Flux 24 hours / flux at all timepoints measured: mice, i.v., 0.5 mg/kg; for Total Flux 3 hours / Total Flux 6 hours / Total Flux 24 hours: Luc mRNA; for flux at all timepoints measured: 3, 6 and 24 hour, in words; for Lipid/MC3 AUC / AUC (p/s * h): Table 3D, intravenous; for AUC (p/s * h): Luc
In short: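 Bioluminescence, read as region-of-interest total flux at 3, 6 and 24 h, followed a single 0.5 mg/kg intravenous dose of Luc mRNA-loaded nanoparticles in mice (n=6). Luciferin substrate (200 μL, 15 mg/mL in PBS) was injected intraperitoneally into CD-1 mice 15 minutes ahead of each imaging point.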

[4] = tested on: luciferase (Luc) mRNA; assay: Luc expression (total flux) after intramuscular administration; assay type: in vivo, mice; settings: for Total flux (p/s) 0.01 mpk Dose: Table 5B; for i.m. Lipid/MC3 0.01 mpk, Luc, 6 h: Table 3B
Method: In order to monitor how effectively various nanoparticle compositions deliver therapeutic and/or prophylactics to targeted cells, different nanoparticle compositions including a particular therapeutic and/or prophylactic (for example, a modified or naturally occurring RNA such as an mRNA) are prepared and administered to rodent populations. Mice are intravenously, intramuscularly, intraarterially, or intratumorally administered a single dose including a nanoparticle composition with a formulation such as those provided in Example 3. In some instances, mice may be made to inhale doses. Dose sizes may range from 0.001 mg/kg to 10 mg/kg, where 10 mg/kg describes a dose including 10 mg of a therapeutic and/or prophylactic in a nanoparticle composition for each 1 kg of body mass of the mouse. A control composition including PBS may also be employed.
Sample formulations including both modified luciferase (Luc) mRNA and H10 mRNA were prepared and administered intramuscularly and the resulting expression and immunogenicity were evaluated simultaneously. Formulations including compounds according to Formula (I), (IA), (IB), (II), (IIa), (IIb), (IIc), (IId), (IIe), (IIf), (IIg), (III), (VI), (VI-a), (VII), (VIII), (VIIa), (VIIIa), (VIIIb), (VIIb-1), (VIIb-2), (VIIb-3), (VIIc), (VIId), (VIIIc), or (VIIId) were prepared and administered at doses of 0.001 and 0.01 mpk (e.g., doses of 0.0005 mpk of a formulation including Luc mRNA and a formulation including H10 mRNA or doses of 0.005 mpk of a formulation including Luc mRNA and a formulation including H10 mRNA).
Sample formulations including modified luciferase (Luc) mRNA prepared and administered intramuscularly and the resulting expression and immunogenicity were evaluated simultaneously. Formulations including compounds according to Formula (I), (IA), (IB), (II), (IIa), (IIb), (IIc), (IId), (IIe), (IIf), (IIg), (III), (VI), (VI-a), (VII), (VIII), (VIIa), (VIIIa), (VIIIb), (VIIb-1), (VIIb-2), (VIIb-3), (VIIc), (VIId), (VIIIc), or (VIIId) were prepared and administered at dose of and 0.01 mpk.

[5] = tested on: luciferase (Luc) mRNA; assay: Luc expression in liver, lung, spleen and femur 6 hours after intravenous administration; assay type: in vivo; settings: mice, intravenous, 0.5 mpk
In short: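 LNP-formulated mRNA given IV to mice (n=3) at 0.5 mpk; at 6 h, bioluminescence imaged ex vivo 15 min after IP D-luciferin (15 mg/mL, 200 μL), organs imaged within 25 min. Values are total flux by region of interest.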

[6] = Apparent (surface) pKa of the LNP formulation (TNS assay); assay type: physicochemical; settings: Table 1A
In short: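 Fluorescence of TNS probe added to LNP samples (mRNA 0.04 mg/mL) was read across 21 buffers of pH about 3-12, triplicate per pH. The inflection point of the sigmoidal fluorescence-vs-pH curve, […], gives apparent pKa; method validated in 1× PBS and Tris/sucrose buffer.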

[7] = 6 hours after intramuscular administration, 0.01 mpk

PDI [1] | Size (nm) [1] [nm] | EE (%) [2] [%] | pKa [6] | Compound | Fold increase in total body Luc Flux relative to MC3 at 6 h ([3]; Table 3A, i.v. administration) | Total Flux 3 hours [3] | Total Flux 6 hours [3] | Total Flux 24 hours [3] | flux at all timepoints measured [3] | Total flux, 0.001 mpk Dose ([4]; 6 hours after intramuscular administration, 0.001 mpk, Luc mRNA and H10 mRNA) [p/s] | Total flux, 0.01 mpk Dose ([4]; 6 hours after intramuscular administration, 0.01 mpk, Luc mRNA and H10 mRNA) [p/s] | Total Flux Liver [5] | Total Flux Lung [5] | Total Flux Spleen [5] | Total flux (p/s) 0.01 mpk Dose [4, 7] [p/s] | Lipid/MC3 AUC [3] | AUC (p/s * h) [3] [p/s * h] | i.m. Lipid/MC3 0.01 mpk, Luc, 6 h ([4]; 0.01 mpk) | Novel lipid/MC3 expression ratio, 6 hr. time point, i.m. Luc ([4]; intramuscular, relative to MC3 formulation)
 |  |  | 8.50 | CCCCCCCCCOC(=O)CCCCCCCN(CCCN)CCCCCCCC(=O)OC(CCCCCCCC)CCCCCCCC [Compound 121, Heptadecan-9-yl 8-((3-aminopropyl)(8-(nonyloxy)-8-oxooctyl)amino)octanoate] |  | 1.29E+06 | 1.36E+06 |  |  |  |  |  |  |  | 1.06E+06 |  |  |  | 
 |  |  | 6.27 | CCCCCCCCCOC(=O)CCCCCCCN(C)CCCCCCCC(=O)OC(CCCCCCCC)CCCCCCCC [Compound 123, Heptadecan-9-yl 8-(methyl(8-(nonyloxy)-8-oxooctyl)amino)octanoate] |  | 4.06E+09 | 1.81E+10 | 5.18E+08 |  |  |  | 2.50E+08 | 1.78E+06 | 4.04E+06 | 1.08E+07 |  |  |  | 
0.072 | 62.6 | 99.29 | 6.465 | CCCCCCCCCOC(=O)CCCCCCCN(CCO)CCCCCCC/C=C\C(CCCCCCCC)CCCCCCCC [Compound 152, Nonyl (Z)-8-((2-hydroxyethyl)(10-octyloctadec-8-en-1-yl)amino)octanoate] |  | 1.56E+09 | 2.45E+09 | 4.95E+07 |  |  |  | 1.43E+08 | 3.16E+05 | 6.63E+06 |  | 0.15 | 2.855E+010 |  | 
0.110 | 92.9 | 94.28 | 6.827 | CCCCCCCCCOC(=O)CCCCCCCN(CCCCCCCC(=O)OC(CCCCCCCC)CCCCCCCC)CCOCCO [Compound 154, Heptadecan-9-yl 8-((2-(2-hydroxyethoxy)ethyl)(8-(nonyloxy)-8-oxooctylamino octanoate] |  | 2.49E+09 | 4.89E+09 | 6.26E+07 |  |  |  | 3.62E+08 | 2.89E+06 | 1.30E+07 |  | 0.29 | 5.560E+010 |  | 
0.240 | 208.3 | 37.36 | 6.576 | CCCCCCCCC(CCCCCCCC)OC(=O)CCCCCCCN(CCO)CCCCCCCC(=O)OC(C)(C)C [Compound 155, tert-Butyl 8-((8-(heptadecan-9-yloxy)-8-oxooctyl)(2-hydroxyethyl)amino)octanoate] |  | 2.49E+09 | 1.15E+10 | 1.99E+08 |  |  |  | 8.58E+08 | 1.00E+07 | 2.77E+08 |  | 0.66 | 1.266E+011 |  | 
0.080 | 251.8 | 35.70 | 6.953 | CCCCCCCCCOC(=O)CCCCCCCN(CCO)CCCCCCCC(=O)OC(C)(C)C [Compound 158, tert-Butyl 8-((2-hydroxyethyl)(8-(nonyloxy)-8-oxooctyl)amino)octanoate] |  | 2.69E+05 | 9.82E+05 | 1.55E+05 | significantly lower flux |  |  | 1.99E+05 | 1.71E+04 | 1.17E+05 |  | <0.01 | 1.211E+007 |  | 
0.190 | 75.9 | 99.29 | 7.873 | CCCCCCCCCOC(=O)CCCCCCCN(CCO)CCN(CCO)CCCCCCCC(=O)OC(CCCCCCCC)CCCCCCCC [Compound 159, Heptadecan-9-yl 8-((2-hydroxyethyl)(2-((2-hydroxyethyl)(8-(nonyloxy)-8-oxooctyl)amino)ethyl)amino)octanoate] |  | 3.32E+06 | 1.20E+07 | 4.98E+05 |  |  |  | 1.13E+06 | 2.17E+05 | 7.24E+05 |  | <0.01 | 1.355E+008 |  | 
0.16 | 75.5 | 92.89 | 6.31 | CCCCCCCCCOC(=O)CCCCCCCN(CCCCCCCC(=O)OC(CCCCCCCC)CCCCCCCC)CCCN(C)S(C)(=O)=O [Compound 173, Heptadecan-9-yl 8-((3-(N-methylmethylsulfonamido)propyl)(8-(nonyloxy)-8-oxooctyl)amino)octanoate] |  |  |  |  |  |  |  |  |  |  |  |  |  | 0.6 | 
0.21 | 84.4 | 99.0 | 6.65 | CCCCCCCCCOC(=O)CCCCCCCN(CCCCCCCC(=O)OC(CCCCCCCC)CCCCCCCC)CCCN1C(=O)CNC1=O [Compound 174, Heptadecan-9-yl 8-((3-(2,5-dioxoimidazolidin-1-yl)propyl)(8-(nonyloxy)-8-oxooctyl)amino)octanoate] |  |  |  |  |  |  |  |  |  |  |  |  |  | 0.2 | 
0.16 | 65.7 | 94.8 | 6.15 | CCCCCCCCCOC(=O)CCCCCCCN(CCCCCCCC(=O)OC(CCCCCCCC)CCCCCCCC)CCCOC(=O)NC [Compound 175, Heptadecan-9-yl 8-((3-((methylcarbamoyl)oxy)propyl)(8-(nonyloxy)-8-oxooctyl)amino)octanoate] |  |  |  |  |  |  |  |  |  |  |  |  |  | 0.1 | 
0.21 | 81.4 | 98.8 | 6.59 | CCCCCCCCCOC(=O)CCCCCCCN(CCCCCCCC(=O)OC(CCCCCCCC)CCCCCCCC)CCCn1cc(CO)nn1 [Compound 218, Heptadecan-9-yl 8-((3-(4-(hydroxymethyl)-1H-1,2,3-triazol-1-yl)propyl)(8-(nonyloxy)-8-oxooctyl)amino)octanoate] |  |  |  |  |  |  |  |  |  |  |  |  |  |  | 1.77

Compound | PDI [1] | Size (nm) [1] [nm] | EE (%) [2] [%] | pKa [6] | Fold increase in total body Luc Flux relative to MC3 at 6 h ([3]; Table 3A, i.v. administration) | Total Flux 3 hours [3] | Total Flux 6 hours [3] | Total Flux 24 hours [3] | flux at all timepoints measured [3] | Total flux, 0.001 mpk Dose ([4]; 6 hours after intramuscular administration, 0.001 mpk, Luc mRNA and H10 mRNA) [p/s] | Total flux, 0.01 mpk Dose ([4]; 6 hours after intramuscular administration, 0.01 mpk, Luc mRNA and H10 mRNA) [p/s] | Total Flux Liver [5] | Total Flux Lung [5] | Total Flux Spleen [5] | Total flux (p/s) 0.01 mpk Dose [4, 7] [p/s] | Lipid/MC3 AUC [3] | AUC (p/s * h) [3] [p/s * h] | i.m. Lipid/MC3 0.01 mpk, Luc, 6 h ([4]; 0.01 mpk) | Novel lipid/MC3 expression ratio, 6 hr. time point, i.m. Luc ([4]; intramuscular, relative to MC3 formulation)
CCCCCCCCCOC(=O)CCCCCCCN(CCO)CCCCCCCC(=O)OC(CCCC)CCCC [Compound 57, nonan-5-yl 8-((2-hydroxyethyl)(8-(nonyloxy)-8-oxooctyl)amino) octanoate] | 0.16 | 128.4 | 94.33 |  | 0.00056 | 6.69E+06 | 6.21E+06 | 4.16E+05 | significantly lower flux | 1.16E+05 | 2.23E+05 | 9.36E+05 | 3.18E+04 | 2.47E+06 |  |  |  |  | 
